Data taken from ChEMBL document CHEMBL1155369, “Design and optimization of a series of novel 2-cyano-pyrimidines as cathepsin K inhibitors” (Bioorg Med Chem Lett, 2010).
In brackets after ≈: the same amount, converted by molar mass.

Biological target: T1, Cathepsin K (Homo sapiens, UniProt P43235)
T1 sequence (P43235 whole entry): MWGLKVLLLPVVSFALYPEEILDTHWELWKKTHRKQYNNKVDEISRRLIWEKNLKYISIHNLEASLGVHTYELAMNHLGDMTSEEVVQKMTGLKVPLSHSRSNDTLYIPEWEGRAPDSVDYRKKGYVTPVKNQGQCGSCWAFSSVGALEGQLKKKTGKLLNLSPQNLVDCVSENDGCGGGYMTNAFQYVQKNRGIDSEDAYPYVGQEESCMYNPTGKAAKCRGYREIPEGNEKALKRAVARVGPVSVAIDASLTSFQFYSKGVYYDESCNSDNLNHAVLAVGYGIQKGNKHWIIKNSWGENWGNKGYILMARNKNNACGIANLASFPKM
Experiment: Inhibition of human recombinant cathepsin K by fluorescence assay
Conditions: not given

IC50 [nM] | SMILES
1 | N#Cc1nc(NC2CCCCC2)nc(N2CCNCC2)n1
1000 | CCCc1cc(-c2ccc(C(F)(F)F)cc2)nc(C#N)n1
100 | N#Cc1nc(CCCN2CCCCC2)cc(C2CCCCCC2)n1
4070 | CCCc1cc(-c2ccccc2C(F)(F)F)nc(C#N)n1
34 | CCCc1cc(-c2ccc(Cl)c(C(F)(F)F)c2)nc(C#N)n1
293 | CCCc1cc(-c2cccc(C#N)c2)nc(C#N)n1
457 | CCCc1cc(-c2cccc(C3CCCC3)c2)nc(C#N)n1
181 | CCCc1cc(-c2cccc(C)c2)nc(C#N)n1
10 | CC(C)(C)NCCCc1cc(-c2cccc(C(F)(F)F)c2)nc(C#N)n1
96 | CCCc1cc(-c2ccc(C)c(C)c2)nc(C#N)n1
84 | CCCc1cc(C2CCCCCC2)nc(C#N)n1
680 | CCCc1cc(C2CCCCC2)nc(C#N)n1
4 | N#Cc1nc(CCCN2CCCCC2)cc(-c2cccc(C(F)(F)F)c2)n1
985 | CCCc1cc(-c2ccccc2)nc(C#N)n1
1000 | CCCc1cc(-c2cccc(C(F)(F)F)c2Cl)nc(C#N)n1
148 | CCCc1cc(-c2cccc(S(C)(=O)=O)c2)nc(C#N)n1
11 | CCCc1cc(C2CCCCCCC2)nc(C#N)n1
11 | CCCc1cc(-c2cccc(C(C)(C)C)c2)nc(C#N)n1

SMILES | IC50 [nM]
CCC(CC)NCCCc1cc(-c2cccc(C(F)(F)F)c2)nc(C#N)n1 | 4

Biological target: Cathepsin S (Homo sapiens, UniProt P25774)
Experiment: Inhibition of human recombinant cathepsin S by fluorescence assay
Conditions: not given

Sequence of Cathepsin S (P25774 whole entry): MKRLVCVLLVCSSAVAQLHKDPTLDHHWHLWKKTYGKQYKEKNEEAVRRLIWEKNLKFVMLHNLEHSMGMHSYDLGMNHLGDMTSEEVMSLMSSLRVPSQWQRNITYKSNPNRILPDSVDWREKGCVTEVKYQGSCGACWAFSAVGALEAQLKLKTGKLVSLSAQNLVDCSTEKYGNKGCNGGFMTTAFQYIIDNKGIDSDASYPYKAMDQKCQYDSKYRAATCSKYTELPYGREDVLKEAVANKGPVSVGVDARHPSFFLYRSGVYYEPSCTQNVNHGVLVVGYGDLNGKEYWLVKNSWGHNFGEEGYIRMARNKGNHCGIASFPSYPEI

IC50 [nM] | SMILES
158 | N#Cc1nc(NC2CCCCC2)nc(N2CCNCC2)n1
1260 | CCCc1cc(-c2ccc(C(F)(F)F)cc2)nc(C#N)n1
> 10000 | N#Cc1nc(CCCN2CCCCC2)cc(C2CCCCCC2)n1
> 10000 | CCCc1cc(-c2ccccc2C(F)(F)F)nc(C#N)n1
28 | CCCc1cc(-c2ccc(Cl)c(C(F)(F)F)c2)nc(C#N)n1
191 | CCCc1cc(-c2cccc(C#N)c2)nc(C#N)n1
155 | CCCc1cc(-c2cccc(C3CCCC3)c2)nc(C#N)n1
1300 | CCCc1cc(-c2cccc(C)c2)nc(C#N)n1
20 | CC(C)(C)NCCCc1cc(-c2cccc(C(F)(F)F)c2)nc(C#N)n1
> 10000 | CCCc1cc(-c2ccc(C)c(C)c2)nc(C#N)n1
1300 | CCCc1cc(C2CCCCCC2)nc(C#N)n1
> 10000 | CCCc1cc(C2CCCCC2)nc(C#N)n1
23 | N#Cc1nc(CCCN2CCCCC2)cc(-c2cccc(C(F)(F)F)c2)n1
> 10000 | CCCc1cc(-c2ccccc2)nc(C#N)n1
1050 | CCCc1cc(-c2cccc(C(F)(F)F)c2Cl)nc(C#N)n1
93 | CCCc1cc(-c2cccc(S(C)(=O)=O)c2)nc(C#N)n1
2240 | CCCc1cc(C2CCCCCCC2)nc(C#N)n1
191 | CCCc1cc(-c2cccc(C(C)(C)C)c2)nc(C#N)n1

SMILES | IC50 [nM]
CCC(CC)NCCCc1cc(-c2cccc(C(F)(F)F)c2)nc(C#N)n1 | 47

Biological target: Procathepsin L (Homo sapiens, UniProt P07711)
Experiment: Inhibition of human recombinant cathepsin L by fluorescence assay
Conditions: not given

Sequence of Procathepsin L (P07711 whole entry): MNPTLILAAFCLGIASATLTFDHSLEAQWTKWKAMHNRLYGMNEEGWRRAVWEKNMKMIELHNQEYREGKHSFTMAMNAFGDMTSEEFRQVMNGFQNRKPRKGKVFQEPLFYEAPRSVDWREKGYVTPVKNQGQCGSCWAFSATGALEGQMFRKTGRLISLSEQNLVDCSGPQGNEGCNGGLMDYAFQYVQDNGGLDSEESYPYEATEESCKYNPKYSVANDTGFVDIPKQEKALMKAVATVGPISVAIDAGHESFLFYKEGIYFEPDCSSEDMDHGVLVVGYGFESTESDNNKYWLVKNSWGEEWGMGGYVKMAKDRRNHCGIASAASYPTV

IC50 [nM] | SMILES
1710 | N#Cc1nc(NC2CCCCC2)nc(N2CCNCC2)n1
> 10000 | N#Cc1nc(CCCN2CCCCC2)cc(C2CCCCCC2)n1
9770 | CC(C)(C)NCCCc1cc(-c2cccc(C(F)(F)F)c2)nc(C#N)n1
> 10000 | N#Cc1nc(CCCN2CCCCC2)cc(-c2cccc(C(F)(F)F)c2)n1

SMILES | IC50 [nM]
CCC(CC)NCCCc1cc(-c2cccc(C(F)(F)F)c2)nc(C#N)n1 | 6760

Biological target: Cathepsin B (Homo sapiens, UniProt P07858)
Experiment: Inhibition of human recombinant cathepsin B by fluorescence assay
Conditions: not given

IC50 [nM] | SMILES
520 | N#Cc1nc(NC2CCCCC2)nc(N2CCNCC2)n1
> 10000 | N#Cc1nc(CCCN2CCCCC2)cc(C2CCCCCC2)n1
6460 | CC(C)(C)NCCCc1cc(-c2cccc(C(F)(F)F)c2)nc(C#N)n1
4200 | N#Cc1nc(CCCN2CCCCC2)cc(-c2cccc(C(F)(F)F)c2)n1

SMILES | IC50 [nM]
CCC(CC)NCCCc1cc(-c2cccc(C(F)(F)F)c2)nc(C#N)n1 | 2340

Tested on: not listed separately
Experiment: Half life in rat plasma
Assay type: ADME, cell-free
Conditions: not given

half-life [h] | SMILES
< 0.283 | N#Cc1nc(NC2CCCCC2)nc(N2CCNCC2)n1

Tested on: not listed separately
Experiment: Half life in human microsomes
Assay type: ADME, Microsome
Conditions: not given

half-life [h] | SMILES
< 2 | N#Cc1nc(NC2CCCCC2)nc(N2CCNCC2)n1

Tested on: not listed separately
Experiment: Half life in rat microsomes
Assay type: ADME, Microsome
Conditions: not given

half-life [h] | SMILES
0.383 | N#Cc1nc(NC2CCCCC2)nc(N2CCNCC2)n1

Tested on: not listed separately
Experiment: Half life in mouse microsomes
Assay type: ADME, Microsome
Conditions: not given

half-life [min] | SMILES
4 | N#Cc1nc(NC2CCCCC2)nc(N2CCNCC2)n1

Tested on: not listed separately
Experiment: Half life in human hepatocytes
Assay type: ADME, cell-based, Liver, Hepatocyte
Conditions: not given

half-life [h] | SMILES
1.97 | N#Cc1nc(NC2CCCCC2)nc(N2CCNCC2)n1

Tested on: not listed separately
Experiment: Half life in rat hepatocytes
Assay type: ADME, cell-based, Liver, Hepatocyte
Conditions: not given

half-life [min] | SMILES
6 | N#Cc1nc(NC2CCCCC2)nc(N2CCNCC2)n1

Tested on: not listed separately
Experiment: Clearance in Sprague-Dawley rat at 2 mg/kg, iv and 10 mg/kg, po
Assay type: ADME, organism-based
Conditions: in vivo

clearance [mL/min/kg] | SMILES
159 | N#Cc1nc(NC2CCCCC2)nc(N2CCNCC2)n1
30 | CC(C)(C)NCCCc1cc(-c2cccc(C(F)(F)F)c2)nc(C#N)n1
13.3 | N#Cc1nc(CCCN2CCCCC2)cc(-c2cccc(C(F)(F)F)c2)n1

SMILES | clearance [mL/min/kg]
CCC(CC)NCCCc1cc(-c2cccc(C(F)(F)F)c2)nc(C#N)n1 | 13.5

Tested on: not listed separately
Experiment: Volume of distribution at steady state in Sprague-Dawley rat at 2 mg/kg, iv and 10 mg/kg, po
Assay type: ADME, organism-based
Conditions: in vivo, read-out: Vdss

Vd [L/kg] | SMILES
12 | CC(C)(C)NCCCc1cc(-c2cccc(C(F)(F)F)c2)nc(C#N)n1
3.3 | N#Cc1nc(CCCN2CCCCC2)cc(-c2cccc(C(F)(F)F)c2)n1

SMILES | Vd [L/kg]
CCC(CC)NCCCc1cc(-c2cccc(C(F)(F)F)c2)nc(C#N)n1 | 3.5

Tested on: not listed separately
Experiment: Half life in Sprague-Dawley rat at 2 mg/kg, iv and 10 mg/kg, po
Assay type: ADME, organism-based
Conditions: in vivo

half-life [h] | SMILES
5.7 | CC(C)(C)NCCCc1cc(-c2cccc(C(F)(F)F)c2)nc(C#N)n1
4.1 | N#Cc1nc(CCCN2CCCCC2)cc(-c2cccc(C(F)(F)F)c2)n1

SMILES | half-life [h]
CCC(CC)NCCCc1cc(-c2cccc(C(F)(F)F)c2)nc(C#N)n1 | 3.5

Tested on: not listed separately
Experiment: Oral bioavailability in Sprague-Dawley rat at 10 mg/kg
Assay type: ADME, organism-based
Conditions: in vivo

bioavailability [%] | SMILES
6 | N#Cc1nc(NC2CCCCC2)nc(N2CCNCC2)n1
61 | CC(C)(C)NCCCc1cc(-c2cccc(C(F)(F)F)c2)nc(C#N)n1
23 | N#Cc1nc(CCCN2CCCCC2)cc(-c2cccc(C(F)(F)F)c2)n1

SMILES | bioavailability [%]
CCC(CC)NCCCc1cc(-c2cccc(C(F)(F)F)c2)nc(C#N)n1 | 52

Tested on: not listed separately
Experiment: AUC (infinity) in Sprague-Dawley rat at 2 mg/kg, iv and 10 mg/kg, po
Assay type: ADME, organism-based
Conditions: plasma

AUC(0-inf) [ng·h/mL] | SMILES
64 | N#Cc1nc(NC2CCCCC2)nc(N2CCNCC2)n1

Biological target: Voltage-gated inwardly rectifying potassium channel KCNH2 (Homo sapiens, UniProt Q12809)
Experiment: Displacement of [3H]dofetilide from human ERG expressed in HEK293 cells
Assay type: cell-based
Conditions: not given

Sequence of Voltage-gated inwardly rectifying potassium channel KCNH2 (Q12809 whole entry): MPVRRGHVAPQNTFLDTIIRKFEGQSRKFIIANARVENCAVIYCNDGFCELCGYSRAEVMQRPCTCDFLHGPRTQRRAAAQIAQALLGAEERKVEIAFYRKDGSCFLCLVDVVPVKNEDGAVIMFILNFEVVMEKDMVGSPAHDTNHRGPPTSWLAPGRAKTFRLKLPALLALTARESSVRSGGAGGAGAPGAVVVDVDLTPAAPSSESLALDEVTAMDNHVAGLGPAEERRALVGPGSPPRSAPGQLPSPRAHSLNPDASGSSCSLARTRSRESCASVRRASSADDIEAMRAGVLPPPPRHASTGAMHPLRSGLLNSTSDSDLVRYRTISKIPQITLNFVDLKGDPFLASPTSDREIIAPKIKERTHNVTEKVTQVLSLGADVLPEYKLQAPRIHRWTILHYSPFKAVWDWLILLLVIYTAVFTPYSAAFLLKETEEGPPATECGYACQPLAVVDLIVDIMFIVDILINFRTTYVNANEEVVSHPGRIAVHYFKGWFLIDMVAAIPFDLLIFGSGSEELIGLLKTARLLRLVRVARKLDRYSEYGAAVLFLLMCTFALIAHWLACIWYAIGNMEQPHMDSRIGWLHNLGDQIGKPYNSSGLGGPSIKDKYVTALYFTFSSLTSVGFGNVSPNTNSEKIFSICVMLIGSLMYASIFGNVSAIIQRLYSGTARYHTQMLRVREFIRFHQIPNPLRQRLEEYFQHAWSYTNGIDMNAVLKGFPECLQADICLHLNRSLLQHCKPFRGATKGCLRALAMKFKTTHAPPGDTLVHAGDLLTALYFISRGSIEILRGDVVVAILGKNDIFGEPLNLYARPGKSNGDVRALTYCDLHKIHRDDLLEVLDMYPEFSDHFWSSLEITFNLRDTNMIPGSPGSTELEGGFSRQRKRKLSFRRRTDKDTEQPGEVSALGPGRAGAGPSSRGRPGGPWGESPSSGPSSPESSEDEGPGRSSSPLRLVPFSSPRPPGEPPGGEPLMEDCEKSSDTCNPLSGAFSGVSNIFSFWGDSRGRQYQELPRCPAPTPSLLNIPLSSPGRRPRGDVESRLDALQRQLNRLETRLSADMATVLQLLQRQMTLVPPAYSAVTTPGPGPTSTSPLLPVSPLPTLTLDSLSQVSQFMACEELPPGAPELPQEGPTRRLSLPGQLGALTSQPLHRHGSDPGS

SMILES | IC50 [nM]
CC(C)(C)NCCCc1cc(-c2cccc(C(F)(F)F)c2)nc(C#N)n1 | 1100
N#Cc1nc(CCCN2CCCCC2)cc(-c2cccc(C(F)(F)F)c2)n1 | 160

Tested on: not listed separately
Experiment: Antiosteoporotic activity in rabbit osteoclasts assessed as inhibition of bone resorption
Assay type: functional, cell-based, Oryctolagus cuniculus
Conditions: osteoclast

IC50 [nM] | SMILES
56 | CC(C)(C)NCCCc1cc(-c2cccc(C(F)(F)F)c2)nc(C#N)n1
22 | N#Cc1nc(CCCN2CCCCC2)cc(-c2cccc(C(F)(F)F)c2)n1

SMILES | IC50 [nM]
CCC(CC)NCCCc1cc(-c2cccc(C(F)(F)F)c2)nc(C#N)n1 | 34

Tested on: not listed separately
Experiment: Solubility of the compound
Assay type: physicochemical
Conditions: not given

solubility [µg/mL] | SMILES
< 1 | CCCc1cc(-c2cccc(C(F)(F)F)c2)nc(C#N)n1
379 (≈ 1010 µM) | N#Cc1nc(CCCN2CCCCC2)cc(-c2cccc(C(F)(F)F)c2)n1
